Converted amounts (≈) assume the structure as drawn. Some results are limits rather than exact numbers.

These results are taken from patent US20190112316A1, “THIAZOLO[3,2-A] PYRIMIDINONE AND OTHER HETEROBICYCLIC PYRIMIDINONE COMPOUNDS FOR USE IN MEDICAL THERAPY” (priority 2015, published 2019).

Data set [1] concerns the target T1, glucocerebrosidase (Gcase) (Homo sapiens, UniProt P04062).
T1 construct: micellar solution containing 10 nM GCase and 100 nM saposin C (Enzo ALX-201-262-C050)
T1 sequence (P04062 40-536): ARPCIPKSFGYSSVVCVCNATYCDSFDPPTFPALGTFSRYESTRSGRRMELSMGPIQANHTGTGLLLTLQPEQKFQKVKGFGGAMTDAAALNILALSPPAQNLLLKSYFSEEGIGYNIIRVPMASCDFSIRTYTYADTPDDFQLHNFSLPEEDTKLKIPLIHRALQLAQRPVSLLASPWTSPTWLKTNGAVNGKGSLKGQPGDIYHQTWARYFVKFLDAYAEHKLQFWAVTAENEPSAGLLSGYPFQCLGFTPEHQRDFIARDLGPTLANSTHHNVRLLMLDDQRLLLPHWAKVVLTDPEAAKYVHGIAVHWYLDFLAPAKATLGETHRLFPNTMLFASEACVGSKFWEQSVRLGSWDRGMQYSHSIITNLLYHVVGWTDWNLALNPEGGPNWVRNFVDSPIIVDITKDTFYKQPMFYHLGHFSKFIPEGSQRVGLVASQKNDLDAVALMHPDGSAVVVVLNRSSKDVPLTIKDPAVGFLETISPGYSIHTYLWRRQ
In words: Glucocerebrosidase (Gcase) activation assay, 4-methylumbelliferyl-beta-D-glucopyranoside substrate, with saposin C. It counts as biochemical. The note with it: for activation at 0.1 µM: read-out: Percent Gcase Activation 0.1 μM Test Compound; for activation at 1 µM: read-out: Percent Gcase Activation 1 μM Test Compound. As to the method: A 484 μL aliquot of a 1.0 mg/mL solution of phosphatidylserine (PS) (Sigma P7769) in chloroform was evaporated under a stream of nitrogen for 1 hour. The lipid film was dissolved over 4 minutes of vigorous vortexing in 40 mL of 176 mM K2HPO4/50 mM citric acid (pH 4.7) containing 7.5 μL of triton X-100, resulting in a mixed micellar preparation with a composition of 0.32 mM triton and 0.37 mol % PS. 4-Methylumbelliferyl-beta-D-glucopyranoside (ACROS-337025000) was dissolved in the micellar solution to a final concentration of 2 mM for use as the reaction substrate.
Test compounds were diluted to the desired concentrations with dimethylsulfoxide (DMSO) from 10 mM stocks, and 0.41 μL of the DMSO compound mixture was added to 100 μL of micellar solution containing 10 nM GCase and 100 nM saposin C (Enzo ALX-201-262-C050). Pre-incubation was allowed to occur for 30 minutes at room temperature, after which the reaction was initiated by combining 25 μL of substrate solution with 25 μL of compound/GCase/saposin mixture. The reaction proceeded for 15 minutes at room temperature and was stopped by adding 150 μL of 1M glycine, pH 12.5. The endpoint of the reaction was monitored by measuring fluorescence intensity (excitation: 365 nm; emission: 440 nm) on a SpectraMax i3 instrument (Molecular Devices). Test compounds were screened at 1.0 and 0.1 μM final concentration, and subsequent 8-point dose response curves were obtained using 3-fold dilutions from a maximum final concentration of 5 μM.

The nature of data set [2]: Compound solubility in water. It is filed as physicochemical.

Turning to `CC1CCC(NC(=O)c2cnc3n(c2=O)CCS3)CC1` (stereo not drawn), in data set [1], the activation at 0.1 µM was below 5% and the activation at 1 µM was 5 to 20%. Further, the concentration in solution in data set [2] (solubility) was 21.4 µg/mL (≈ 72.9 µM).

In the case of `O=C(NC1Cc2ccccc2C1)c1cnc2sccn2c1=O`, in data set [1], the activation at 0.1 µM lay in the range of 5 to 20% and the activation at 1 µM was above 20%. Further, in data set [2], the concentration in solution (solubility) came to 1.2 µg/mL (≈ 3.85 µM).

In the case of `O=C(NC1CCCCCC1)c1cnc2n(c1=O)CCS2`, in data set [1], the activation at 0.1 µM was below 5% and the activation at 1 µM fell in the range of 5 to 20%. Also, in data set [2], the concentration in solution (solubility) came to 20.8 µg/mL (≈ 70.9 µM).

Take `C#Cc1ccc(NC(=O)c2cnc3n(c2=O)CCS3)cc1`: in data set [1], the activation at 0.1 µM is below 5% and the activation at 1 µM is 5 to 20%. The same molecule gave a solubility in data set [2] of 1.5 µg/mL (≈ 5.04 µM).

As for `O=C(NC1CCC(c2ccccc2)CC1)c1cnc2n(c1=O)CCS2` (stereo not drawn), in data set [1], the activation at 0.1 µM fell in the range of 5 to 20% and the activation at 1 µM is above 20%. Besides, the concentration in solution in data set [2] (solubility) came to 10.6 µg/mL (≈ 29.8 µM).

In the case of `CCC(C)c1ccc(NC(=O)c2cnc3c(C)cccn3c2=O)cc1` (stereo not drawn), in data set [1], the activation at 0.1 µM is below 5% and the activation at 1 µM lay in the range of 5 to 20%. In addition, the solubility in data set [2] turned out to be 0.5 µg/mL (≈ 1.49 µM).

Regarding `Cc1cccc2ncc(C(=O)NC3CCOCC3)c(=O)n12`, in data set [1], the activation at 0.1 µM is below 5% and the activation at 1 µM lay within 5 to 20%. In data set [2], the concentration in solution (solubility) came to 31 µg/mL (≈ 108 µM).

In the case of `CCc1ccc(NC(=O)c2cnc3ccccn3c2=O)cc1`, in data set [1], the activation at 0.1 µM was below 5% and the activation at 1 µM lay within 5 to 20%. For the same molecule, the concentration in solution in data set [2] (solubility) came to 1 µg/mL (≈ 3.41 µM).

`CCN1CCN(c2ccc(NC(=O)c3cnc4cccc(C)n4c3=O)cc2)CC1`: in data set [1], the activation at 0.1 µM is below 5% and the activation at 1 µM fell in the range of 5 to 20%. In data set [2], this molecule registered a solubility of 33.3 µg/mL (≈ 85.1 µM).

`O=C(NCC1COc2ccccc2O1)c1cnc2sccn2c1=O` (stereo not drawn): in data set [1], the activation at 0.1 µM is below 5% and the activation at 1 µM was below 5%. For the same molecule, the concentration in solution in data set [2] (solubility) was 22.6 µg/mL (≈ 65.8 µM).

Regarding `CCc1ccc(CCNC(=O)c2cnc3sccn3c2=O)cc1`, in data set [1], the activation at 0.1 µM was below 5% and the activation at 1 µM was in the range of 5 to 20%. This molecule registered a solubility in data set [2] of 2.5 µg/mL (≈ 7.64 µM).

Consider `CCCCc1ccc(NC(=O)c2cnc3n(c2=O)CCS3)cc1`, for which, in data set [1], the activation at 0.1 µM was 5 to 20% and the activation at 1 µM is above 20%. This molecule registered a solubility in data set [2] of 0.2 µg/mL (≈ 0.607 µM).

In the case of `O=C(NC1CCC2(CCCCO2)CC1)c1cnc2n(c1=O)CCS2` (stereo not drawn), in data set [1], the activation at 0.1 µM is below 5% and the activation at 1 µM was below 5%. In data set [2], the solubility turned out to be 29.5 µg/mL (≈ 84.4 µM).

As for `CC(C)c1ccc(NC(=O)c2cnc3sccn3c2=O)nc1`, in data set [1], the activation at 0.1 µM is below 5% and the activation at 1 µM fell in the range of 5 to 20%. This molecule had a solubility in data set [2] of 2.7 µg/mL (≈ 8.59 µM).

Take `CCCCC1CCC(NC(=O)c2cnc3n(c2=O)CC(C)S3)CC1` (stereo not drawn): in data set [1], the activation at 0.1 µM was below 5% and the activation at 1 µM was above 20%. In addition, the solubility in data set [2] is 1.2 µg/mL (≈ 3.43 µM).

Regarding `CCc1ccc(NC(=O)c2cnc3scc(C)n3c2=O)cc1`, in data set [1], the activation at 0.1 µM was below 5% and the activation at 1 µM was above 20%. Besides, in data set [2], the concentration in solution (solubility) was 1.1 µg/mL (≈ 3.51 µM).

Turning to `C#Cc1ccc(NC(=O)c2cnc3cccc(C)n3c2=O)cc1`, in data set [1], the activation at 0.1 µM is below 5% and the activation at 1 µM lay within 5 to 20%. Moreover, in data set [2], the solubility stood at 1.5 µg/mL (≈ 4.95 µM).

Regarding `O=C(NC1CCc2ccccc2C1)c1cnc2n(c1=O)CCS2` (stereo not drawn), in data set [1], the activation at 0.1 µM was below 5% and the activation at 1 µM lay in the range of 5 to 20%. For the same molecule, the concentration in solution in data set [2] (solubility) was 30.7 µg/mL (≈ 93.8 µM).

Take `Cc1cccc2ncc(C(=O)Nc3ccc(C4CCCCC4)cc3)c(=O)n12`: in data set [1], the activation at 0.1 µM is below 5% and the activation at 1 µM is above 20%. Moreover, in data set [2], the solubility came out at 0.2 µg/mL (≈ 0.553 µM).

Turning to `O=C(Nc1ccc2c(c1)OCCO2)c1cnc2n(c1=O)CCS2`, in data set [1], the activation at 0.1 µM is below 5% and the activation at 1 µM is below 5%. Besides, the concentration in solution in data set [2] (solubility) was 9.5 µg/mL (≈ 28.7 µM).

With `Cc1cccc2ncc(C(=O)NC3CCC(c4ccccc4)CC3)c(=O)n12` (stereo not drawn), in data set [1], the activation at 0.1 µM was 5 to 20% and the activation at 1 µM was above 20%. This molecule also came in with a solubility in data set [2] of 3.5 µg/mL (≈ 9.68 µM).

On to `O=C(NC1CCCc2ccccc21)c1cnc2n(c1=O)CCS2` (stereo not drawn), for which, in data set [1], the activation at 0.1 µM is below 5% and the activation at 1 µM is above 20%. Besides, in data set [2], the solubility stood at 7.1 µg/mL (≈ 21.7 µM).

As for `Cc1cccc2ncc(C(=O)NC3CCc4ccccc43)c(=O)n12` (stereo not drawn), in data set [1], the activation at 0.1 µM was below 5% and the activation at 1 µM was above 20%. Moreover, the solubility in data set [2] came out at 6.8 µg/mL (≈ 21.3 µM).

Take `CCCCC1CCC(NC(=O)c2cnc3n(c2=O)C(C)CS3)CC1` (stereo not drawn): in data set [1], the activation at 0.1 µM was 5 to 20% and the activation at 1 µM is above 20%. The solubility in data set [2] was determined as 1.3 µg/mL (≈ 3.72 µM).

Consider `O=C(Nc1ccc(-n2ccnc2)cc1)c1cnc2n(c1=O)CCS2`, for which, in data set [1], the activation at 0.1 µM is below 5% and the activation at 1 µM is below 5%. In data set [2], this molecule gave a solubility of 0.8 µg/mL (≈ 2.36 µM).

As usually defined, the solubility is the dissolved amount per volume that the medium holds.
